Results from US20260183274A1, “PDK1 REGULATORY COMPOUND AND COMPOSITION CONTAINING THE SAME” (PROVIBIO CO., LTD., priority 2024, published 2026).

How the values were obtained:
[1] = tested on: T cells isolated from mouse spleens; assay: T cell proliferation inhibition (CFSE flow cytometry, anti-CD3/anti-CD28 stimulation); assay type: cell-based; conditions: mouse spleen T cells, 3 days; for inhibition at 0.01 µM / inhibition at 0.1 µM / inhibition at 1 µM / inhibition at 10 µM / inhibition at 30 µM / inhibition at 50 µM: Mus musculus, T-cell, 72 h, read-out: Proliferation inhibition rate (%)
Outline: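 Proliferation inhibition (%) came from flow cytometry of CFSE dilution after 3 days' culture at 37 °C with compound (10 nM, 100 nM, 1, 10, 30, 50 μM; triplicate wells). Cells were magnetically purified T cells from C57BL/6 mouse spleens, 2×10^5 per well, stimulated with 0.5 μg/mL each anti-CD3 and anti-CD28.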

[2] = tested on: Human B Lymphocyte cell line, SU-DHL-8; assay: Relative cell viability CCK-8, SU-DHL-8; assay type: cell-based; conditions: for viability at 1 µM / viability at 10 µM / viability at 30 µM / viability at 50 µM: Homo sapiens, SU-DHL-8, 48 h; for viability at 1 µM: read-out: Relative cell viability (%), SU-DHL-8, 1 μM; for viability at 10 µM: read-out: Relative cell viability (%), SU-DHL-8, 10 μM; for viability at 30 µM: read-out: Relative cell viability (%), SU-DHL-8, 30 μM; for viability at 50 µM: read-out: Relative cell viability (%), SU-DHL-8, 50 μM
Procedure: Human-derived B lymphoma cell line SU-DHL-8 (Cat. #CRL-2961) purchased from ATCC was cultured in RPMI-1640 medium containing 10% FBS, 100 U/mL penicillin, and 100 μg/mL streptomycin.
The cell culture medium was then harvested, centrifuged at 1,300 rpm for 5 minutes, and the supernatant was removed. The cells were resuspended in the same medium and dispensed into a 96-well plate (Costar 96-well cell culture plate, Corning) at 90 μL per well, resulting in the conditions specified in Table 5.
Then, 10 μL of CCK-8 was added to each well, and the plates were incubated again at 37° C. in a 5% CO2 incubator for 4 hours.
In other words, when the survival rate of untreated cells (DMSO) is set at 100%, the relative cell survival rate in each group treated with the drug at different concentrations is indicated.

[3] = 48 hours, untreated (DMSO) = 100%
[4] = 1 μM, 48 hours, untreated (DMSO) = 100%
[5] = 10 μM, 48 hours, untreated (DMSO) = 100%
[6] = 30 μM, 48 hours, untreated (DMSO) = 100%
[7] = 50 μM, 48 hours, untreated (DMSO) = 100%

SMILES | inhibition at 0.01 µM ([1]; compound 10 nM) [%] | inhibition at 0.1 µM ([1]; compound 100 nM) [%] | inhibition at 1 µM ([1]; compound 1 μM) [%] | inhibition at 10 µM ([1]; compound 10 μM) [%] | inhibition at 30 µM ([1]; compound 30 μM) [%] | inhibition at 50 µM ([1]; compound 50 μM) [%] | viability at 1 µM [2, 3] [%] | viability at 10 µM [2, 3] [%] | viability at 30 µM [2, 3] [%] | Proliferation inhibition rate (%) ([1]; compound 10 nM) | Proliferation inhibition rate (%) ([1]; compound 100 nM) | Proliferation inhibition rate (%) ([1]; compound 1 μM) | Proliferation inhibition rate (%) ([1]; compound 10 μM) | Proliferation inhibition rate (%) ([1]; compound 30 μM) | Proliferation inhibition rate (%) ([1]; compound 50 μM) | Relative cell viability (%), SU-DHL-8 [2, 4] [%] | Relative cell viability (%), SU-DHL-8 [2, 5] [%] | Relative cell viability (%), SU-DHL-8 [2, 6] [%] | Relative cell viability (%), SU-DHL-8 [2, 7] [%] | viability at 50 µM [2, 3] [%] | further results
Nc1ncccc1C(=O)NCCCCCCCCCCCCN1CC2CCCC2C1 (stereo not drawn) [Compound 46, 2-Amino-N-(12-(hexahydrocyclopenta[c]pyrrol-2 (1H)-yl)dodecyl)nicotinamide] | -10.5 | 100 | 100 | 100 | 100 | 100 | 4.8 | 2.44 | 2.08 |  |  |  |  |  |  |  |  |  |  |  | Relative cell viability (%), SU-DHL-8 ([2]; human, 48 h, 50 µM): −0.92%
Cc1ccc(C2CCN(CCCCCCCCCCCCNC(=O)c3cccnc3N)CC2)cc1 [Compound 55, 2-Amino-N-(12-(4-(p-tolyl)piperidin-1-yl)dodecyl) nicotinamide] |  |  |  |  |  |  |  |  |  | 89.67 | 100.00 | 100.00 | 100.00 | 100.00 | 100.00 | 9.36 | 4.92 | 1.10 | 0.97 |  | 
Cc1nnc(C)n1CCCCCCCCCCCCNC(=O)c1cccnc1N [Compound 56, 2-Amino-N-(12-(3,5-dimethyl-4H-1,2,4-triazol-4-yl)dodecyl)nicotinamide] | -2.51 | 2.91 | 81.1 | 100 | 100 | 100 | 32.4 | 19.6 | 11.2 |  |  |  |  |  |  |  |  |  |  | 0 | 
Nc1ncccc1C(=O)NCCCCCCCCF [Compound 61, 2-Amino-N-(8-fluoro-octyl)-nicotinamide] | -10.2 | -6.37 | -5.75 | 34.9 | 85.4 | 93.2 | 48.8 | 36.4 | 42 |  |  |  |  |  |  |  |  |  |  | 21 | 
O=C(NCCCCCCCCCCCCF)c1cccnc1S [Compound 62, N-(12-fluoro-dodecyl)-2-mercapto-nicotinamide] | 0 | 0 | 0 | -18.5 | 100 | 100 | 32.5 | 24.9 | 22.9 |  |  |  |  |  |  |  |  |  |  | 19.3 | 
Nc1ncccc1C(=O)NCCCCCCCCCCN1CCOCC1 [Compound 63, 2-Amino-N-(10-morpholin-4-yl-decyl)-nicotinamide] | -9.84 | 4.85 | 11.2 | 100 | 100 | 100 | 33 | 29.8 | 29.1 |  |  |  |  |  |  |  |  |  |  | 27.9 | 
O=C(NCCCCCCCCCCCCF)c1ncccc1O [Compound 64, 3-Hydroxy-pyridine-2-carboxylic acid (12-fluoro-dodecyl)-amide] | -4.11 | 8.63 | 6.99 | 8.94 | 80.4 | 97 | 23.3 | 14.1 | 6.51 |  |  |  |  |  |  |  |  |  |  | 6.33 | 
Cl.Nc1ncccc1C(=O)NCCCCCCCCCCCCF [Compound 69, 3-(12-fluoro-dodecylcarbamoyl)-pyridin-2-yl-ammonium chloride] |  |  |  |  |  |  |  |  |  | −4.04 | −4.66 | 7.14 | 65.36 | 89.94 | 99.20 | 27.80 | 15.16 | 1.05 | 0.77 |  | 
Nc1ccncc1C(=O)NCCCCCCCCCCCCF [Compound 73, 4-Amino-N-(12-fluoro-dodecyl)-nicotinamide] | -6.44 | 5.75 | 7.4 | 84.8 | 100 | 100 | 11.9 | 5.03 | 0.98 |  |  |  |  |  |  |  |  |  |  | 0.91 | 
Nc1ncccc1C(=O)NCCCCCCCCCCCCn1nnc2cccnc21 [Compound 88, N-(12-(3H-[1,2,3]triazolo[4,5-b]pyridin-3-yl)dodecyl)-2-aminonicotinamide] | -3.22 | 4.29 | 56.3 | 100 | 100 | 100 | 12.6 | 5.98 | 5.06 |  |  |  |  |  |  |  |  |  |  | 2.23 | 
Cl.O=C(NCCCCCCCCCCCCN1CCNCC1)c1ccc(-c2ccccc2)o1 [Compound 90, 5-Phenyl-N-(12-(piperazin-1-yl)dodecyl) furan-2-carboxamide hydrochloride] |  |  |  |  |  |  |  |  |  | −8.27 | −2.03 | 66.18 | 100.00 | 100.00 | 100.00 | 7.19 | 5.94 | 2.48 | 1.94 |  | 
CN1CCN(CCCCCCCCCCCCNC(=O)c2ccc3[nH]cnc3c2)CC1 [Compound 91, N-(12-(4-methylpiperazin-1-yl)dodecyl)-1H-benzo[d]imidazole-5-carboxamide] | -14.6 | 100 | 100 | 100 | 100 | 100 | 3.93 | 3.12 | 1.84 |  |  |  |  |  |  |  |  |  |  | 1.59 | 
CN1CCN(CCCCCCCCCCCCNC(=O)c2cccnc2F)CC1 [Compound 121, 2-fluoro-N-(12-(4-methylpiperazin-1-yl)dodecyl) nicotinamide] |  |  |  |  |  |  |  |  |  | 0.00 | 0.00 | 0.00 | 30.00 | 100.00 | 100.00 | 34.89 | 28.99 | 29.04 | 31.11 |  | 
Nc1ncccc1C(=O)NCCCCCCCCCCCCN1CC(F)(F)C1 [Compound 122, 2-Amino-N-(12-(3,3-difluoroazetidin-1-yl)dodecyl) nicotinamide] |  |  |  |  |  |  |  |  |  | 0.00 | 0.00 | 80.00 | 100.00 | 100.00 | 100.00 | 31.84 | 31.91 | 32.93 | 35.70 |  | 
Nc1ncccc1C(=O)NCCCCCCCCCCCCn1ncc2ccc(Cl)nc21 [Compound 123, 2-Amino-N-(12-(6-chloro-1H-pyrazolo[3,4-b]pyridin-1-yl)dodecyl)nicotinamide] | -2.54 | 4.78 | 48.4 | 100 | 100 | 100 | 42.2 | 42.2 | 44.6 |  |  |  |  |  |  |  |  |  |  | 48.8 | 
